Read-outs that look alike come from different tables or passages of the source.
Tests used:
[1] = tested on: extracts of bovine small intestine; type: in vitro ADME; conditions: Korean native cattle, 24 h
Protocol: The small intestine (40 m) of Korean native cattle (record number: KOR005078680400), slaughtered in Bucheon livestock products market of National Agricultural Cooperative Federation, was purchased. After slicing the small intestine to around 1 m, 20 mM sodium phosphate buffer (pH 7.4, 5 mL) was added in the sliced small intestine. Thereafter, while holding each ends of the small intestine, the small intestine was repeatedly waggled to help most of enzymes in the small intestine to be dissolved by the sodium phosphate buffer. […]
(§1) In order to remove protein in the sample which the reaction was over, perchloric acid (0.5%) was added therein and diluted 10-fold. Thereafter, the N-acetyl-L-methionine and L-methionine existing in the supernatant, which is separated by centrifugation at 14,000 for 10 minutes, were quantitatively analyzed (HPLC). Conversion rate (%) was calculated by comparing the molar concentrations (mM) between the N-acetyl-L-methionine prior to the reaction and the L-methionine after the reaction, in terms of the percentage (%) (the molecular weight of the N-acetyl-L-methionine: […]; and the molecular weight of the L-methionine: […]). […]

[2] = tested on: extracts of bovine liver; experiment: Digestive degradation by extracts of liver; type: in vitro ADME; conditions: Korean native cattle, 24 h
Protocol: The liver of Korean native cattle (record number: KOR005078680400), slaughtered in Bucheon livestock products market of National Agricultural Cooperative Federation, was purchased. After mixing liver tissues (0.125 g) with 20 mM sodium phosphate buffer (pH 7.4, 1 mL), glass beads (Sigma G1145) were filled in about 1/10 of a tube (2 mL). The cell tissues were disrupted using a beadbeater (MP™ FastPrep) for three times with each 20 seconds, and the resultant was centrifuged at 4° C. at 14,000 rpm for 10 minutes to obtain supernatants.
To confirmed the enzymatic activity of the extracts obtained from small intestine and liver, acylase I (sigma A3010) extracted from pig kidney was used. […]
as §1

[3] = tested on: ruminal microflora; conditions: male, Holstein, cattle, 2 mg/mL
Protocol: One Holstein steer (weighing around 630 kg to 650 kg) equipped with ruminal cannula was provided for an experimental purpose, and the Holstein steer was bred by feeding the commercial feed (Milkgen™, CJ CheilJedang) and rice straws twice a day (7:30 a.m., 3:[…].).
The collection of ruminal fluid was carried out at 10 a.m. on the experimental day. Contents in the rumen were removed through a cannula, and gastric fluid was extracted with gauze by squeezing the same. Thereafter, the extracted gastric fluid was placed in a vacuum flask, and bubbled with CO2. The vacuum flak containing the gastric fluid was then carried to a laboratory while blocking a penetration of oxygen. It took less than an hour to carry the ruminal fluid to the laboratory.
The ruminal fluid carried to the laboratory was filtered with two layers of gauze, and then it was used as anaerobic culture medium by mixing the same with a biomimetic solution of McDougall's buffer (Troelsen and Donna, 1966), which is commonly used in the in vitro rumen bypass test, in a ratio of 1:3.
A feed used in the experiment was the commercial feed (Milkgen™), a feed substantially used for cattle breeding, and the feed was also used as a basal diet. Further, the experimental samples were prepared by mixing the basal diet with a test material. The test material used in this experiment was N-acetyl-L-methionine, and this was used as an experimental group 1. The experimental group 1 was compared with the control group 1 composed of only the basal diet without the test material, and also compared with the control group 2 composed of the test material, L-methionine. The culture was carried out with three replications for each experimental group.
The basal diet and test material were mixed in a ratio of 4:1 (basic diet (0.4 g), test material (0.1 g); but only 0.5 g of basic diet in control group 1). The culture initiated when the mixed test material (0.5 g) was added in a culture bottle (125 mL), and then mixed it with the prepared anaerobic culture medium (50 mL), and placed in 40° C. incubator upon sealing of the same.
O2 free CO2 was sprayed during the entire process including dilution of the ruminal fluid until the initiation of the culture, so that the ruminal fluid was not exposed to oxygen. Therefore, the anaerobic condition was maintained.
The culture was finally carried out for 48 hours, and sampling of the culture medium was carried out a total of four times (0 h, 24 h, 36 h, 48 h) upon the initiation of the culture. At each sampling, the sample placed in the 40° C. incubator was moved from the incubator and opened its lid. Thereafter, a supernatant was obtained by centrifuging the culture medium at 4000 rpm for 10 minutes, and then the amount of the test material present in the supernatant was measured.
The bypass rate (%) is represented as a residual amount (%) at time-points of 24 hours, 36 hours, and 48 hours, based on the amount of a test material at the time-point of 0 hour (100%).

[4] = Milk production and composition on feeding N-acetyl-L-methionine; type: in vivo, dairy cows
Protocol: Based on the in vitro evaluation, the N-acetyl-L-methionine, for which high digestive degradation rate in the small intestine and bypass rate in the rumen had been observed, was subjected to verify its efficiency through a substantial evaluation with dairy cows. In order for this, the cows were divided into two separated groups, and the change in milk composition depending on presence or absence of the N-acetyl-L-methionine was analyzed during the evaluation. For this, eight dairy cows were divided into two groups so that each group consists of four cows, respectively. Additionally, the N-acetyl-L-methionine was added to the feed composition (Table 12) which are fed by the four cows in one group (30 g of N-acetyl-L-methionine by each cow per a day), and it was carried out for 84 days. • Group 1: Non-addition of N-acetyl-L-methionine • Group 2: Addition of N-acetyl-L-methionine

[5] = Weight gain effect on feeding N-acetyl-L-methionine; type: in vivo, beef steers
Description: The weight gain effect of beef steers was verified through feeding N-acetyl-L-methionine. For the verification, 24 beef steers were divided into two groups so that each group consisted of 12 beef steers. […] In the group with the addition of N-acetyl-L-methionine, each beef steer was fed with the N-acetyl-L-methionine (30 g) per a day.

[6] = 30 g per cow per day in feed, 84 days
[7] = 30 g per steer per day, 90 days

With `CSCCC(NC(C)=O)C(=O)O` (racemic) [N-acetyl-D,L-methionine, reference compound] the “L-methionine (mM) after the reaction” value [1] was 5.82 mM and the “L-methionine (mM) after the reaction” value [2] was 6.36 mM.

In the case of `CSCC[C@H](N)C(=O)O` [L-methionine], the “Rate of rumen bypass (%), Average” value ([3]; 0 h) is reported as 100%, the “Rate of rumen bypass (%), replicate 1” value ([3]; 0 h) is reported as 100% and the “Rate of rumen bypass (%), replicate 2” value ([3]; 0 h) is reported as 100%. For the same molecule, the “Rate of rumen bypass (%), replicate 3” value ([3]; 0 h) was 100%, the “Rate of rumen bypass (%), Average” value ([3]; 24 h) was 58.8% and the “Rate of rumen bypass (%), replicate 1” value ([3]; 24 h) was 51.2%. For the same molecule, the “Rate of rumen bypass (%), replicate 2” value ([3]; 24 h) was 62.6%, the “Rate of rumen bypass (%), replicate 3” value ([3]; 24 h) was 62.7% and the “Rate of rumen bypass (%), Average” value ([3]; 36 h) was 36.0%. The “Rate of rumen bypass (%), replicate 1” value ([3]; 36 h) was 29.4%, the “Rate of rumen bypass (%), replicate 2” value ([3]; 36 h) was 42.3% and the “Rate of rumen bypass (%), replicate 3” value ([3]; 36 h) was 36.2%. The “Rate of rumen bypass (%), Average” value ([3]; 48 h) was 1.5%, the “Rate of rumen bypass (%), replicate 1” value ([3]; 48 h) was 1.9% and the “Rate of rumen bypass (%), replicate 2” value ([3]; 48 h) was 1.5%. For the same molecule, the “Rate of rumen bypass (%), replicate 3” value ([3]; 48 h) was 0.9%.

With `CSCC[C@H](NC(C)=O)C(=O)O` [N-acetyl-L-methionine] the “L-methionine (mM) after the reaction” value [1] was 10.9 mM, the “Amount of production, 3.5% FCM (Fat-corrected milk)” value [4, 6] was 43.4 kg/day and the “Amount of production, ECM (Energy-corrected milk)” value [4, 6] was 42.9 kg/day. For the same molecule, the “Feed efficiency, 3.5% FCM yield/DMI” value [4, 6] was 1.72, the “Feed efficiency, ECM yield/DMI” value [4, 6] was 1.70 and the “Feed efficiency, Milk production/Feed intake (Milk yield/DMI)” value [4, 6] was 1.66. The “Production of milk ingredients, Milk fat” value [4, 6] was 1.56 kg/day, the “Production of milk ingredients, Milk protein” value [4, 6] was 1.18 kg/day and the “Rate of milk ingredients, Milk fat” value [4, 6] was 3.70%. For the same molecule, the “Rate of milk ingredients, Milk protein” value [4, 6] was 2.83%, the “3.5% FCM production, rate of increase (%)” value ([4]; vs non-addition group) was 7.4% and the “ECM production, rate of increase (%)” value ([4]; vs non-addition group) was 6.7%. For the same molecule, the “Feed efficiency 3.5% FCM yield/DMI, rate of increase (%)” value ([4]; vs non-addition group) was 9.6%, the “Feed efficiency ECM yield/DMI, rate of increase (%)” value ([4]; vs non-addition group) was 8.3% and the “Feed efficiency Milk yield/DMI, rate of increase (%)” value ([4]; vs non-addition group) was 3.1%. The “Production of milk ingredients, Milk fat, rate of increase (%)” value ([4]; vs non-addition group) was 12.2%, the “Production of milk ingredients, Milk protein, rate of increase (%)” value ([4]; vs non-addition group) was 3.5% and the “Rate of milk ingredients, Milk fat, rate of increase (%)” value ([4]; vs non-addition group) was 10.8%. The “Rate of milk ingredients, Milk protein, rate of increase (%)” value ([4]; vs non-addition group) was 1.8%, the “Rate of rumen bypass (%), Average” value ([3]; 0 h) was 100% and the “Rate of rumen bypass (%), replicate 1” value ([3]; 0 h) was 100%. The “Rate of rumen bypass (%), replicate 2” value ([3]; 0 h) was 100%, the “Rate of rumen bypass (%), replicate 3” value ([3]; 0 h) was 100% and the “Rate of rumen bypass (%), Average” value ([3]; 24 h) was 89.1%. The “Rate of rumen bypass (%), replicate 1” value ([3]; 24 h) was 87.5%, the “Rate of rumen bypass (%), replicate 2” value ([3]; 24 h) was 90.5% and the “Rate of rumen bypass (%), replicate 3” value ([3]; 24 h) was 89.4%. For the same molecule, the “Rate of rumen bypass (%), Average” value ([3]; 36 h) was 76.2%, the “Rate of rumen bypass (%), replicate 1” value ([3]; 36 h) was 72.5% and the “Rate of rumen bypass (%), replicate 2” value ([3]; 36 h) was 80.1%. The “Rate of rumen bypass (%), replicate 3” value ([3]; 36 h) was 76.0%, the “Rate of rumen bypass (%), Average” value ([3]; 48 h) was 55.4% and the “Rate of rumen bypass (%), replicate 1” value ([3]; 48 h) was 52.6%. The “Rate of rumen bypass (%), replicate 2” value ([3]; 48 h) was 57.2%, the “Rate of rumen bypass (%), replicate 3” value ([3]; 48 h) was 56.5% and the “Average daily weight gain” value [5, 7] was 1.48 kg/day. The “Weight of beef steer, 3 months after feeding” value [5, 7] was 382.1 kg, the additional weight gain ([5]; in comparison with one without the N-acetyl-L-methionine, 90 days) was 16.5 kg and the “Weight gain, rate of increase (%)” value ([5]; vs non-addition group) was 14.2%.

From patent publication US10750762B2, “Bio-based N-acetyl-L-methionine and use thereof” (CJ Cheiljedang Corporation, priority 2015, dated 2020)
